The test system of one test is U937 cells. Kind of test: Development of resistance to bortezomib in U937 cells. In kind it is cell-based. The conditions noted are these: bortezomib 0.1-0.5 ng/ml + 0.75 μmol/L test substance (FIG. 11a). The method, then:
For this purpose, U937 cells (histiocytic lymphoma) were cultured in DMEM culture medium (+10% FCS) at 37° C., 5% CO2 in an H2O-saturated atmosphere. 100,000 cells/ml were seeded and incubated with the cytostatic agent bortezomib (0.1 ng/ml) and the respective test substance (dosage in the current experiment: 1 μM/L acepromazine). The reference substance, BVDU, was employed at a concentration of 30 μM/L. The cells were in each case passaged before the cell count reached 1,000,000 cells/ml. At each passage, 100,000 cells/ml were again seeded and the dose of the cytostatic agent bortezomib was increased stepwise (0.1 ng/mL or 0.05 ng/mL). The concentration of the test substances remained constant. As a result of the stepwise increase in the dosage of the cytostatic agent, resistance developed in the U937 cells. The development of resistance is prevented or inhibited in the case of a positively tested HSP27 inhibitor. The experiments from Example 6 were repeated in the same way, wherein U937 cells (histiocytic lymphoma) are cultured in DMEM culture medium (+10% FCS) at 37° C., 5% CO2 in an H2O-saturated atmosphere. 100,000 cells/ml were seeded and incubated with an initial concentration of 0.2 ng/ml of the cytostatic agent bortezomib and both without an inhibitor and with acepromazine as an HSP27 inhibitor at a concentration of 1 μM/L. The reference substance, BVDU, was employed at a concentration of 30 μM/L. The cells were passaged in each case before the cell count reached 1,000,000 cells/ml. At each passage, 100,000 cells/ml were again seeded and the dose of the cytostatic agent bortezomib was increased stepwise by 0.1 ng/mL. The concentration of the test substance and the reference substance remained constant. As a result of the stepwise increase in the dosage of the cytostatic agent, resistance developed in the U937 cells. The development of resistance is prevented or inhibited in the case of a positively tested HSP27 inhibitor. The cell line U-937 is a histiocytic lymphoma (DSMZ ACC 5). This cell line also responds to treatment with bortezomib, expresses HSP27 and develops resistance to bortezomib. Bortezomib is not the standard therapy for this lymphoma, but is being discussed as a possible therapeutic agent. U-937 cells were seeded with a cell count of 100,000 cells/ml in each case and regularly passaged. […] At the end of the experiment, 70,000 living cells per ml medium could be detected. For the treatment with 30 μmol/L BVDU, a final cell count of 250,000 cells/ml was detected whereas the final cell count in the culture without the addition of an HSP27 inhibitor amounted to 450,000 cells/ml. As a control, U-937 cells were treated with the respective test substances alone, FIG. 10b.

For test [1], the target named is T1, HSP27 (Homo sapiens, UniProt P04792). Kind of test: Capillary electrophoresis of heat-denatured citrate synthase protein precipitates. The class given is biochemical. Conditions: for times higher activity than BVDU for the inhibition of the HSP27 protein / Efficacy compared with BVDU: 10 μmol/L vs 750 μmol/L BVDU; for times higher activity than BVDU for the inhibition of the HSP27 protein / Rel. quantity of protein prec. CS: 43° C. for 120 minutes; for Rel. quantity of protein prec. CS: 10 μmol/L; for BVDU equivalent dose: based on 100 mg BVDU. How it is done: Since the heat-denatured protein aggregates of the citrate synthase from Example 1 are not water-soluble, these can be separated completely from the supernatant by means of centrifugation at room temperature at 16,000×g, 10 min. By using capillary electrophoresis, the compositions of the separated precipitates can be shown and quantified. The relative quantity of protein of precipitated citrate synthase serves as a measure of the efficacy of the test substances.
In each case, 481 nmol/L HSP27 and 1.44 μmol/L citrate synthase in 40 mmol/L HEPES buffer, pH 7.4, were employed. The relative quantity of protein of the precipitated citrate synthase in each case was normalized using a defined quantity of BSA as internal standard. The relative quantity of protein that precipitated when using 750 μmol/L BVDU was set at 1. The other test substances (2 representatives of phenothiazine derivatives of general formula (V), 2 representatives of purine derivatives of formula (I) or (II)) were each employed at a concentration of 10 μmol/L.
Since the heat-denatured protein aggregates of the citrate synthase from Example 2 are not water-soluble, these can be separated completely from the supernatant by means of centrifugation at room temperature at 16,000×g, 10 min. By using capillary electrophoresis, the compositions of the separated precipitates can be shown and quantified. The relative quantity of protein of precipitated citrate synthase serves as a measure of the efficacy of the test substances.
In each case, 481 nM HSP27 and 1.44 μmol/L citrate synthase in 40 mmol/L HEPES buffer, pH 7.4, were employed. The relative quantity of protein of the precipitated citrate synthase in each case was normalized using a defined quantity of BSA as internal standard. The relative quantity of protein that precipitated when using 750 μmol/L BVDU was set at 1. The other test substances (2 representatives of phenothiazine derivatives of general formula (V), 2 representatives of thymine derivatives of formula (I) or (II)) were employed at a concentration of 10 μmol/L in each case.
Otherwise, the experiments were performed as described above: […]

The subject of test [2] is RPMI-8226 cells. Kind of test: Development of resistance to bortezomib in RPMI-8226 cells. In kind it is cell-based.
Test [3] has as its target T1, HSP27. Kind of test: Spectrophotometric protein aggregation assay (citrate synthase, HSP27 chaperone function). The class given is biochemical. Conditions: for effect on chaperone function of HSP27 (CS aggregation) relative to 750 μmol/L BVDU: 43° C., 500 nm. The method, then: FIG. 1: a spectrophotometric protein aggregation assay at 43° C., a wavelength of 500 nm and a concentrations of the proteins: 1.44 μmol/L citrate synthase (CS), 481 nmol/L HSP27 (HSP) in a 40 mmol/L HEPES buffer (pH 7.4) during treatment with 14 or 28 μmol/L 2-(3-trichlorovinylphenylamino)-1,9-dihydropurin-6-one (CS+HSP+test substance no. 2), with 750 μmol/L BVDU (CS+HSP+BVDU) and without (CS+HSP; reference);
To measure the efficacy of the purine derivatives according to the invention, robust experiments for the chaperone function of the HSP27 protein were performed:
A known client protein (=substrate on which HSP27 acts as a chaperone) of HSP27 is citrate synthase. Citrate synthase is denatured when the temperature increases to 43° C. This heat denaturation is prevented or delayed by the presence of HSP27 [Jakob U, 1993]. By adding the novel active ingredients, their efficacy can thus be measured through the inhibition of the HSP27 chaperone function.
To determine the activity (i.e. the effect on the aggregation behaviour of the citrate synthase (CS) after thermal incubation) of 2-(3-trichlorovinylphenylamino)-1,9-dihydropurin-6-one in comparison to BVDU, four different batches containing 1.44 μmol/L CS, 481 nmol/L HSP27 (HSP) in a 40 mmol/L HEPES buffer (pH 7.4) were prepared and BVDU (750 μmol/L) or various concentrations of 2-(3-trichlorovinylphenylamino)-1,9-dihydropurin-6-one (14 μmol/L; 28 μmol/L) were added. The samples were then incubated at 43° C. and the aggregation behaviour of the CS was […] in a spectrometer (PerkinElmer LS55, PerkinElmer Inc.) at a wavelength of 500 nm.
It can be seen from FIG. 1 that the protein citrate synthase (graph CS alone) is denatured by increasing the temperature to 43° C. and forms aggregates. The aggregation is measured in the spectrometer at 500 nm (light scattering by protein aggregates). The presence of HSP27 (HSP) counteracts the aggregation (cf. graph, CS+HSP). Since the addition of the test substances (BVDU and 2-(3-trichlorovinylphenylamino)-1,9-dihydropurin-6-one) inhibits the chaperone function of HSP27, the activity of the respective test substance can be determined by measuring the aggregation behaviour of the CS.

Test [4] has as its system RPMI-8226 cells. Kind of test: Development of resistance to bortezomib in RPMI-8226 cells. The class given is cell-based. The method, then:
The cell line RPMI-8226 (DMSZ 402) is a “multiple myeloma” cell line and was chosen because bortezomib is employed as a standard therapy for multiple myeloma. RPMI-8226 cells respond to bortezomib, express HSP27 and develop resistance to Velcade. RPMI-8226 cells were seeded at a cell count of 100,000 cells/ml in each case and regularly passaged. […] In contrast, for RPMI 8226 cells that were treated with 30 μmol/L BVDU, a final cell count of 160,000 cells/ml was detected whereas the final cell count for the culture without the addition of an HSP27 inhibitor amounted to 350,000 cells/ml. As a control, RPMI 8226 cells were treated with the respective test substances alone, FIG. 4b.
This is another data set of the same source.

Setting [5] is: 43° C. for 120 minutes (Table 1).
[6] abbreviates: relative to 750 μmol/L BVDU = 1 (Table 1).
Setting [7] is: 43° C. for 120 minutes (Table 2).
[8] abbreviates: relative to 750 μmol/L BVDU = 1 (Table 2).

T1 sequence (P04792 whole entry): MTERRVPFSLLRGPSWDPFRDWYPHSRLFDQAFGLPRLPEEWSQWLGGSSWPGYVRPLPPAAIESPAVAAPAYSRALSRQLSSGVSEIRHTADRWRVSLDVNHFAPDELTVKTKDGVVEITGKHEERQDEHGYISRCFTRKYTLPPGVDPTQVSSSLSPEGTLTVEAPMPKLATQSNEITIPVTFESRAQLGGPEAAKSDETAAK

With `CCCCc1ccc(Nc2nc3c(ncn3COCCO)c(=O)[nH]2)cc1` [2-(4-butylphenylamino)-9-(2-hydroxyethoxymethyl)-1,9-dihydropurin-6-one], the “development of resistance to the cytostatic agent bortezomib” value (shortened to “development of resistance”) with U937 cells and in the test on RPMI-8226 cells [2] (bortezomib 0.1-0.3 ng/ml + 1 μM/L test substance (FIG. 6a)) was “significantly inhibited” throughout. Besides, the “living cells at the end of the experiment” value (“living cells at the end” for short) with U937 cells (without HSP27 inhibitor 450,000 cells/ml) was 30,000 living cells per ml medium; in the test on RPMI-8226 cells [2] (bortezomib 0.1-0.3 ng/ml + 1 μM/L test substance (FIG. 6a), without HSP27 inhibitor 950,000 cells/ml), 240,000 living cells per ml medium. At HSP27 [1], the “times higher activity than BVDU for the inhibition of the HSP27 protein” value worked out at 69 times. On HSP27 [1] (setting [5]), the “Efficacy compared with BVDU” value turned out to be 69.0 x. Moreover, the “Rel. quantity of protein prec. CS” value on HSP27 [1] (setting [6]) was found to be 0.92. The BVDU equivalent dose on HSP27 [1] was determined as 1.4 mg.

Consider `O=c1[nH]c(Nc2cccc(C(Cl)=C(Cl)Cl)c2)nc2[nH]cnc12` [2-(3-trichlorovinylphenylamino)-1,9-dihydropurin-6-one], for which the “times higher activity than BVDU for the inhibition of the HSP27 protein” value on HSP27 [1] came out at 53 times. The “Efficacy compared with BVDU” value at HSP27 [1] (setting [5]) is given as 53.25 x. Also, the “Rel. quantity of protein prec. CS” value on HSP27 [1] (setting [6]) is recorded as 0.71. In addition, the BVDU equivalent dose entry at HSP27 [1] and at HSP27 [3] (based on 100 mg BVDU) was “less than 1.9 mg” throughout. Further, the “effect on chaperone function of HSP27 (CS aggregation) relative to 750 μmol/L BVDU” value was “comparable effect” on HSP27 [3] (14 μmol/L) and “significantly more pronounced effect” at HSP27 [3] (28 μmol/L). The “living cells at the end” value in the test with RPMI-8226 cells [2] (bortezomib 0.1-0.3 ng/ml + 1 μmol/L test substance (FIG. 7a), without HSP27 inhibitor 950,000 cells/ml) was 270,000 living cells per ml medium. Moreover, the “development of resistance” value in the test on RPMI-8226 cells [4] (bortezomib 0.1-0.3 ng/ml + 1 μmol/L test substance (FIG. 7a)) was “significantly inhibited”.

Take `Cc1cn(CC=CCNC(=O)C2c3ccccc3Oc3ccccc32)c(=O)[nH]c1=O` [9H-xanthene-9-carboxylic acid [4-(5-methyl-2,4-dioxo-3,4-dihydro-2H-pyrimidin-1-yl)-but-2-enyl]amide]: on HSP27 [1], the “times higher activity than BVDU for the inhibition of the HSP27 protein” value turned out to be 49 times and the BVDU equivalent dose entry is “less than 2 mg”. For the same compound, the “Efficacy compared with BVDU” value on HSP27 [1] (setting [7]) is 48.75 x. In addition, at HSP27 [1] (setting [8]), the “Rel. quantity of protein prec. CS” value was found to be 0.65. Also, the “living cells at the end” value in the test with RPMI-8226 cells [2] (bortezomib 0.075-0.275 ng/ml + 1 μmol/L test substance (FIG. 8a), without HSP27 inhibitor 510,000 cells/ml) was 290,000 living cells per ml medium. The “development of resistance” value in the test on RPMI-8226 cells [4] (bortezomib 0.075-0.275 ng/ml + 1 μmol/L test substance (FIG. 8a)) is on record as “significantly inhibited”.

Turning to `Cc1cn(CC=CCNC(=O)Cc2ccc(-c3ccccc3)cc2)c(=O)[nH]c1=O` [2-biphenyl-4-yl-N-[4-(5-methyl-2,4-dioxo-3,4-dihydro-2H-pyrimidin-1-yl)-but-2-enyl]-acetamide], on HSP27 [1], the “times higher activity than BVDU for the inhibition of the HSP27 protein” value was determined as 61 times and the BVDU equivalent dose turned out to be 1.6 mg. In addition, the “Efficacy compared with BVDU” value at HSP27 [1] (setting [7]) is 60.75 x. Moreover, on HSP27 [1] (setting [8]), the “Rel. quantity of protein prec. CS” value is 0.81. For the same compound, the “development of resistance” value in the test with RPMI-8226 cells [2] (bortezomib 0.075-0.275 ng/ml + 1 μmol/L test substance (FIG. 9a)) is listed as “significantly inhibited”. Also, the “living cells at the end” value in the test on RPMI-8226 cells [2] (bortezomib 0.075-0.275 ng/ml + 1 μmol/L test substance (FIG. 9a), without HSP27 inhibitor 510,000 cells/ml) is recorded as 380,000 living cells per ml medium.

The values are drawn from US10940150B2, “Thymine derivatives and quinazoline-dione derivatives for the inhibition of HSP27” (TECHNISCHE UNIVERSITAET DRESDEN, priority 2014, dated 2021).
